Drawing on PMC4805651, “Inhibition of DNA–Topoisomerase I by Acylated Triterpene Saponins from Pittosporum angustifolium Lodd” (Natural Products and Bioprospecting, 2016), this text covers IC50 for 10 molecules.

In series [1] the test system is 5637: human urinary bladder carcinoma cells. The arrangement: method as in PMID 24046217, PMID 25069157. As to conditions: ±SD, ref [3], [5], [10], read-out: IC50 [µM] Cytotoxicity 5637; cited from earlier work.
In series [2] the test system is LN-18: human glioblastoma cells. The arrangement: method as in PMID 24046217, PMID 25069157. As to conditions: ±SD, ref [3], [5], [10], read-out: IC50 [µM] Cytotoxicity LN-18; cited from earlier work.
The test system of series [3] is HaCat: human keratinocyte cells. The arrangement: method as in PMID 24046217, PMID 25069157. Particulars: ±SD; HaCaT human keratinocyte cells (non-tumorigenic); ref [3], [5], [10]; read-out: IC50 [µM] Cytotoxicity HaCaT; cited from earlier work.
In a further series the target is T1, human topoisomerase I (Homo sapiens, UniProt P11387).
T1 construct: purchased Inspiralis Limited, UK (assay run by the vendor as a service)
T1 sequence (P11387 1-765): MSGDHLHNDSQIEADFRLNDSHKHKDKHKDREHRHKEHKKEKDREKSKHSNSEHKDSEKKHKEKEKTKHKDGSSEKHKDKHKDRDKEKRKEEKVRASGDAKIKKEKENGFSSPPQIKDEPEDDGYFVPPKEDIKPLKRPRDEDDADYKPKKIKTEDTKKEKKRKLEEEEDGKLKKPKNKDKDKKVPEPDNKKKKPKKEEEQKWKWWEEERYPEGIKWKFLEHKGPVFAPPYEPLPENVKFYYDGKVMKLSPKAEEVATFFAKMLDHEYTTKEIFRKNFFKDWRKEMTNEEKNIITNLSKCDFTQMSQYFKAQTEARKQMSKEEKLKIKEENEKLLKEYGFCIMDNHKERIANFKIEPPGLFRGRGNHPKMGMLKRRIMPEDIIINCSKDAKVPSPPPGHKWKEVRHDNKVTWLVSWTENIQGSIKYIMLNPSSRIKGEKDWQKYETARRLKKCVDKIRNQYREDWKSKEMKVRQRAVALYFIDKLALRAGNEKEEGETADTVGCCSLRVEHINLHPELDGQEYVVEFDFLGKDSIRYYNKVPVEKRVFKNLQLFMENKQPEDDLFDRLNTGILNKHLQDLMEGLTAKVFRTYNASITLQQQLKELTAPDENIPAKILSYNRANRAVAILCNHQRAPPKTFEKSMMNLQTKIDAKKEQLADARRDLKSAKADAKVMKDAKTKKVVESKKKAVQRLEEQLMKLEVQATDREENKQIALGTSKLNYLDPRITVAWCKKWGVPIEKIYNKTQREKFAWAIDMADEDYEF
Briefly: DNA relaxation assay on human topoisomerase I (gel based, supercoiled pBR322). As to conditions: ±SD, n = 2; relaxation of supercoiled pBR322, 37 °C, 30 min, 10 % DMSO; read-out: IC50 [µM] Topo I. In kind it is biochemical.

Series [4] relates to MCF-7: human breast cancer cells. The arrangement: method as in PMID 24046217, PMID 25069157. Particulars: ±SD, ref [3], [5], [10], read-out: IC50 [µM] Cytotoxicity MCF-7; cited from earlier work.

Description for human topoisomerase I: The relaxation assay on human topoisomerase I was carried out by Inspiralis Limited®, UK, according to their SOP (standard operating procedure). All compounds were dissolved in DMSO and then diluted to yield concentration ranges from 1 nM to 1 mM. […] 1 U (the amount of enzyme required to completely relax the substrate) was incubated with 0.5 µg supercoiled plasmid DNA (pBR322) at 37 °C for 30 min in a 30 µL reaction mixture of 20 mM Tris HCL (pH 7.5), 200 mM NaCl, 0.25 mM EDTA and 5 % glycerol. The reaction was stopped by adding 30 µL chloroform/iso-amyl alcohol (26:1) and 20 µL Stop Dye (40 % sucrose, 100 mM Tris HCl (pH 7.5), 10 mM EDTA, 0.5 μg/mL bromophenol blue) before being loaded on a 0.8 % TAE gel run for 2 h at 80 V. Then bands were visualized by ethidium staining for 10 min and analyzed by documentation equipment (Syngene, Cambridge, UK), gel scanning software (Syngene, GeneTools) and SigmaPlot version 12.3. All assays were carried out in a final DMSO concentration of 10 % and were performed twice.

On to `CC=C(C)C(=O)OC1CC(C)(C)CC2C3=CCC4C5(C)CCC(OC6OC(C(=O)O)C(OC7OC(CO)C(O)C7O)C(OC7OCC(O)C(O)C7O)C6OC6OC(CO)C(O)C(O)C6O)C(C)(C)C5CCC4(C)C3(C)C(O)C(O)C12CO` (centres unmarked) [Compound 1, pittangretoside A], for which the IC50 (in general, the concentration that inhibits the measured activity by half) in series [1] was 4.1 ± 1 µM; in series [2], 7.6 ± 1.7 µM; in series [3], 15.2 ± 0.9 µM; at human topoisomerase I, 7.5 ± 0.6 µM; in series [4], 25.7 ± 1.9 µM.

Take `CC=C(C)C(=O)OC1CC(C)(C)CC2C3=CCC4C5(C)CCC(OC6OC(C(=O)O)C(O)C(O)C6OC6OC(CO)C(O)C(O)C6OC6OC(C)C(O)C(O)C6O)C(C)(C)C5CCC4(C)C3(C)C(O)C(O)C12CO` (centres unmarked) [Compound 2, pittangretoside D]: the IC50 is 17.9 ± 1 µM in series [1]; 35.7 ± 5.2 µM in series [2]; > 118 µM in series [3]; 4.8 ± 2.4 µM on human topoisomerase I; 36.6 ± 5.7 µM in series [4].

As to `CCC(C)C(=O)OCC12C(O)CC(C)(C)CC1C1=CCC3C4(C)CCC(OC5OC(C(=O)O)C(OC6OC(CO)C(O)C6O)C(OC6OCC(O)C(O)C6O)C5OC5OC(CO)C(O)C(O)C5O)C(C)(C)C4CCC3(C)C1(C)C(O)C2O` (centres unmarked) [Compound 3, pittangretoside F], the IC50 is > 106 µM in series [1] and 16.8 ± 0.4 µM on human topoisomerase I.

Turning to `CC=C(C)C(=O)OC1C(OC(C)=O)C2(CO)C(CC1(C)C)C1=CCC3C4(C)CCC(OC5OC(C(=O)O)C(OC6OC(CO)C(O)C6O)C(OC6OCC(O)C(O)C6O)C5OC5OC(CO)C(O)C(O)C5O)C(C)(C)C4CCC3(C)C1(C)C(O)C2O` (centres unmarked) [Compound 4, IIIA3], the IC50 is 13.4 ± 0.8 µM in series [2], 15.9 ± 1.3 µM in series [3], 8.6 ± 0.1 µM on human topoisomerase I and 19.8 ± 2.2 µM in series [4].

Take `CC=C(C)C(=O)OC1C(OC(C)=O)C(C)(C)CC2C3=CCC4C5(C)CCC(OC6OC(C(=O)O)C(OC7OC(CO)C(O)C7O)C(OC7OCC(O)C(O)C7O)C6OC6OC(CO)C(O)C(O)C6O)C(C)(C)C5CCC4(C)C3(C)C(O)C(O)C21CO` (centres unmarked) [Compound 5, pittangretoside N]: the IC50 is 10.4 ± 2.7 µM in series [2], 34.1 ± 2.8 µM in series [3], 6.5 ± 0.6 µM on human topoisomerase I and 28.7 ± 3.6 µM in series [4].

For `CCC(C)(OC(C)=O)C(=O)OC1C(OC(C)=O)C(C)(C)CC2C3=CCC4C5(C)CCC(OC6OC(C(=O)O)C(OC7OC(CO)C(O)C7O)C(OC7OCC(O)C(O)C7O)C6OC6OC(CO)C(O)C(O)C6O)C(C)(C)C5CCC4(C)C3(C)C(O)C(O)C21CO` (centres unmarked) [Compound 6, pittangretoside O], the IC50 is 4.4 ± 0.7 µM in series [2], 19.2 ± 2.1 µM in series [3], 7.5 ± 1.6 µM on human topoisomerase I and 22.9 ± 1.8 µM in series [4].

Regarding `CCC(C)C(=O)OC1C(OC(C)=O)C2(CO)C(CC1(C)C)C1=CCC3C4(C)CCC(OC5OC(C(=O)O)C(OC6OC(CO)C(O)C6O)C(OC6OCC(O)C(O)C6O)C5OC5OC(CO)C(O)C(O)C5O)C(C)(C)C4CCC3(C)C1(C)C(O)C2O` (centres unmarked) [Compound 7, pittangretoside P], the IC50 in series [2] is 7 ± 0.9 µM; in series [3] it was 11.2 ± 0.5 µM; at human topoisomerase I, 4.2 ± 0.2 µM; in series [4], 28.7 ± 3.2 µM.

For `CCC(C)C(=O)OC1CC(C)(C)CC2C3=CCC4C5(C)CCC(OC6OC(C(=O)O)C(OC7OC(CO)C(O)C7O)C(OC7OCC(O)C(O)C7O)C6OC6OC(CO)C(O)C(O)C6O)C(C)(C)C5CCC4(C)C3(C)C(O)C(O)C12CO` (centres unmarked) [Compound 8], the results for the IC50 (in series [2]; at human topoisomerase I) were 3.9 ± 0.1 µM and 2.8 ± 1.1 µM, respectively.

Turning to `CC=C(C)C(=O)OC1C(OC(=O)C(C)=CC)C2(CO)C(CC1(C)C)C1=CCC3C4(C)CCC(OC5OC(C(=O)O)C(OC6OC(CO)C(O)C6O)C(OC6OCC(O)C(O)C6O)C5OC5OC(CO)C(O)C(O)C5O)C(C)(C)C4CCC3(C)C1(C)C(O)C2O` (centres unmarked) [Compound 9, IIIC4], the IC50 in series [2] is 4.6 ± 0.5 µM; in series [3] it was 2.2 ± 0.5 µM; at human topoisomerase I it was 46.5 ± 11.5 µM; in series [4] it was 8.9 ± 0.8 µM.

With `CC=C(C)C(=O)OC1C(OC(=O)C(C)=CC)C2(CO)C(O)CC3(C)C(=CCC4C5(C)CCC(OC6OC(C(=O)O)C(OC7OC(CO)C(O)C7O)C(OC7OCC(O)C(O)C7O)C6OC6OC(CO)C(O)C(O)C6O)C(C)(C)C5CCC43C)C2CC1(C)C` (centres unmarked) [Compound 10, pittangretoside T], the IC50 on human topoisomerase I was determined as 5 ± 3.3 µM.
